The values that follow come from patent US10590121B2, “Kinase inhibitors and methods for making and using” (Rigel Pharmaceuticals, Inc., priority 2017, dated 2020).

Experiment [1] has as its system LPS induced IL-23 (p19/p40) in DC cells differentiated from human PBMC. Nature of the experiment: IL23-p19 ELISA, dendritic cells (DC differentiated from human PBMC), IFNγ primed, LPS stimulated. In kind it is cell-based. Particulars: human PBMC-derived dendritic cells, 1 μg/ml LPS, 18 hours, 10 pt. As for the experimental part:
Compound Screening Using DC Cells
1. Differentiation of PBMC's to DC Cells:
Human PBMC cells (400 million) obtained from the vendor were transferred into a T-175 flask containing 15 ml RPMI media (10% FBS) and incubate for 2 hours at 37° C. After 2 hours, the media including floating cells was aspirated out carefully and 12 ml of fresh RPMI media (10% FBS) containing GMCSF (100 ng/ml) and IL4 (20 ng/ml) was added, and the flask was kept in a 37° C. incubator for 7 days.
After 3 days, fresh GMCSF (100 ng/ml) and IL4 (20 ng/ml) were added to the flask and the incubation continued. After 7 days, the fully differentiated cells were harvested by spinning down (1200 rpm/5 min) and aspirating the media. The cells were suspended in fresh RPMI media (10% FBS) containing 50 ng/ml IFNγ (1000 U/ml) and then plated (50K/well in 100 μl) onto a white clear bottom 96 well plate and left in a 37° C. incubator for 24 hours.
2. Addition of Compounds:
After 24 hours incubation, 100 μl of RPMI media was added containing 2× concentrated test compound per well to the above cell-culture media (final concentration becomes 1×) and the plates were pre-incubated for 1 hour at 37° C. before stimulating with LPS.
After 1 hour compound pre-incubation, 10 μl per well of 20× concentrated LPS solution in RPMI media was added to give a final concentration of 1 μg/ml. The mixture was shaken and incubated the plates at 37° C. for an additional 18 hours.
155 μl of the supernatant was harvested from each well carefully (without the tip touching the bottom of the well) and to the remaining 50 μl/well of the cell culture plate was added 50 μl of Cell Titer Glo reagent. The mixture was incubated for 1-2 minutes on a shaker and the plate was read for luminescence intensity to determine the compound cytotoxicity. The cell culture supernatant collected above was used to carry out IL23 ELISA (65 μl-Supernatant) and IL10 ELISA (90 μl-Supernatant) as described below.
Human IL-23 (p19/p40) ELISA Protocol (e-Biosciences)
To 10.5 ml PBS add 50 μl of anti-IL23 (p19) was added capture antibody (2.5 μg/ml). The mixture was mixed well and 100 μl of the coating solution was added to each well of the 96 well white plates from Pierce. The wells were covered and incubated overnight at 4° C.
The anti-IL23 (p19)-antibody-coated plates were washed 2× using TBST (use plate washer) and blocked using 200 μl of 0.5% Casein for 1.5-2 hours at room temperature with shaking.
The plates were washed 2× using TBST and the supernatant was transferred (65 μl/well) to the above pre-blocked/IL23 (p19)-antibody-coated 96 well plate, and incubated at room temperature for 1.5 hours with shaking.
The plates were washed 4× using TBST (plate washer) and 100 μl/well detection antibody solution prepared from 2 μl of biotin labeled anti-IL-12 (p40/p70) antibody in 11 ml 1% BSA/PBS solution (1-5000 dilution) was added. The plates were incubated for 1 hour with shaking at room temperature.
Again, the plates were washed 4× with TBST and 100 μl of HRP labeled Streptavidin (R&D Systems) solution (10 μl/10 ml 1% BSA solution) was added, and the plates were incubated at room temperature for another 45 minutes with shaking.
After 45 minutes, the plates were washed with TBST 4× and 100 ul/well Super Signal ELISA Pico Chemiluminescent Substrate from Pierce (3.5 ml A+3.5 ml B+3.5 ml MQ water) was added. The plates were shaken for 1-2 minutes then read on a plate reader.

Experiment [2] has as its system LPS induced IL23p19 in THP-1 cells. Nature of the experiment: LPS Induced IL23p19 in THP-1 Cells (with IFNγ Primed) Assay. In kind it is cell-based. Conditions: Homo sapiens; THP-1 cells primed with IFNγ 50 ng/mL, 1 μg/mL LPS, 18 hours, 10 pt; read-out: IL23-p19 ELISA, THP1-IFNy, LPS, 10 pt EC50. The source says: LPS Induced IL23p19 in THP-1 Cells (with IFNγ Primed) Assay
THP-1 Cells (ATCC, Cat # TIB-202), Dimethyl Sulfoxide (DMSO) (Sigma-Aldrich, Cat # D2650), RPMI 1640 (Cellgro, Cat #10-040-CM), Fetal Bovine Serum (Sigma, Cat # F4135), Albumin From Bovine Serum (BSA) (Sigma-Aldrich, Cat # A7906), LPS (Serotype K-235, Sigma, Product Number L 2143), IFNγ (Peprotech, Cat #300-02), Capture antibody: Human IL-23p19 ELISA (e-Bioscience, Cat. #14-7238-85), Detection antibody: Primary Mouse Biotinylated anti-human IL-12 (p40/p70) (e-Bioscience, Cat. #13-7129-85), Secondary HRP-conjugated Streptavidin (R&D Systems, Cat # DY998), 1×PBST Washing Buffer (PBS-Tween tablet) (VWR International, Cat #80058-558), ELISA Blocking Buffer (PBS with 1% BSA), ELISA Dilution Buffer (PBS with 1% BSA), 384 Well Flat-Bottom, MaxiSorp Black Immuno Plates (Thermo Scientific, Cat #12-565-346), 384 Well Flat-Bottom, White Tissue Culture Plates (Thermo Scientific, Cat #12-565-343), Super Signal ELISA Pico Chemiluminescent Substrate (Thermo Scientific, Cat #37070), Cell Titer Glo reagent (Promega, Cat # G7573), Positive control, IKK2VI inhibitor (Calbiochem, Cat #401483), AquaMax 4000 plate washer (Molecular Devices), Luminometer, Wallac Victor2 1420 Multilabel Counter.
On day 1, 50K/well THP-1 cells were seeded and primed with IFNγ (50 ng/mL) in 384-well plates for about 18 hours in RPMI media with 10% FBS. On day 2, the compound was serially diluted in DMSO from 5 mM in 3-fold dilutions, and then diluted 1:125 in RPMI media with 10% FBS. 50 μL/well 2× compound was added to 50 μL/well THP-1 cells (with IFNγ primed) in duplicate in 384 well tissue culture plates. The cells were pre-incubated with compound for 1 hour at 37° C., 5% CO2 before addition of 10 μL/well 11×LPS to give a final concentration of 1 μg/mL LPS. Day 3, after stimulation for 18 hours at 37° C., 5% CO2, the assay plate was centrifuged and 70 μL/well supernatant was harvested. IL-23p19 protein in 70 μL/well of supernatant was measured by sandwich ELISA, and 25 μl/well Cell Titer Glo reagent was added to the remaining cells to measure compound toxicity.
Human IL-23p19 Sandwich ELISA:
Maxisorp immuno ELISA plates were pre-coated with 25 μL/well of anti-IL-23p19 capture antibody (2.5 ug/mL) in PBS overnight at room temperature. After washing with 1×PBST, the plates were blocked using 100 μL/well of 1% BSA in PBS for 2 hours at room temperature. The plates were washed three times with 1×PBST and 70 μL/well supernatant were added. The plates were incubated at room temperature for 2 hours with shaking and washed three times with 1×PBST. 25 μL/well of biotin labeled anti-IL-12 (p40/p70) detection antibody (100 ng/mL) in PBS with 1% BSA was added and the plates were incubated at room temperature for 2 hours with shaking. After washing three times with 1×PBST, 25 μL/well of streptavidin-HRP (1:200) in PBS with 1% BSA was added and the plates were incubated at room temperature for 20 minutes with shaking. The plates were washed three times with 1×PBST and 25 μL/well of Super Signal ELISA Pico Chemiluminescent Substrate were added. The plates were read with a luminometer, and the chemiluminescence values were entered into Athena (Rigel) for curve fitting, EC50 calculation, and database storage.

As for `O=C(Nc1cc(CCN2CCOCC2)c(F)cc1N1CCCCC1)c1csc(-c2cn[nH]c2)n1` [I-32, N-(4-fluoro-5-(2-morpholinoethyl)-2-(piperidin-1-yl)phenyl)-2-(1H-pyrazol-4-yl)thiazole-4-carboxamide], the EC50 in experiment [1] was determined as 324 nM; in experiment [2] it was 173 nM.

`O=C(Nc1cc(C(F)(F)CN2CCOCC2)ccc1N1CCCCC1)c1ccc(-c2cn[nH]c2)o1` [I-34, N-(5-(1,1-difluoro-2-morpholinoethyl)-2-(piperidin-1-yl)phenyl)-5-(1H-pyrazol-4-yl)furan-2-carboxamide]: the results for the EC50 in experiment [1] and in experiment [2] were 6620 nM and 1540 nM, respectively.

For `O=C(Nc1cc(C(F)(F)CN2CCOCC2)ccc1N1CCCCC1)c1csc(-c2cn[nH]c2)n1` [I-35, N-(5-(1,1-difluoro-2-morpholinoethyl)-2-(piperidin-1-yl)phenyl)-2-(1H-pyrazol-4-yl)thiazole-4-carboxamide], the concentration giving a half-maximal response (EC50) in experiment [1] is 2600 nM; in experiment [2] it was 1080 nM.

With `O=C(Nc1ccc(N2CCOCC2)cc1N1CCCCC1)c1cccc(-c2cn[nH]c2)n1` [I-36, N-(4-morpholino-2-(piperidin-1-yl)phenyl)-6-(1H-pyrazol-4-yl)picolinamide], the EC50 in experiment [1] came out at 1300 nM; in experiment [2] it was 2720 nM.

Regarding `O=C(Nc1ccc(N2CCOCC2)cc1N1CCCCC1)c1ccc(-c2cn[nH]c2)o1` [I-37, N-(4-morpholino-2-(piperidin-1-yl)phenyl)-5-(1H-pyrazol-4-yl)furan-2-carboxamide], the EC50 in experiment [1] amounted to 153 nM; in experiment [2] it was 262 nM.

As to `O=C(Nc1ccc(N2CCOCC2)cc1N1CCCCC1)c1csc(-c2cn[nH]c2)n1` [I-38, N-(4-morpholino-2-(piperidin-1-yl)phenyl)-2-(1H-pyrazol-4-yl)thiazole-4-carboxamide], the EC50 in experiment [1] was 3980 nM; in experiment [2] it was 31000 nM.

Regarding `COc1ccc(N2CCOCC2)cc1NC(=O)c1cccc(-c2cn[nH]c2)n1` [I-39, N-(2-methoxy-5-morpholinophenyl)-6-(1H-pyrazol-4-yl)picolinamide], the EC50 in experiment [1] stood at 3230 nM; in experiment [2], 6590 nM.

In the case of `COc1ccc(N2CCOCC2)cc1NC(=O)c1csc(-c2cn[nH]c2)n1` [I-41, N-(2-methoxy-5-morpholinophenyl)-2-(1H-pyrazol-4-yl)thiazole-4-carboxamide], the EC50 in experiment [1] stood at 9220 nM; in experiment [2] it was 3920 nM.

Regarding `O=C(Nc1cnc(N2CCOCC2)cc1N1CCCCC1)c1cccc(-c2cn[nH]c2)n1` [I-42, N-(6-morpholino-4-(piperidin-1-yl)pyridin-3-yl)-6-(1H-pyrazol-4-yl)picolinamide], the EC50 was 3080 nM in experiment [1] and 1040 nM in experiment [2].

As to `O=C(Nc1cnc(N2CCOCC2)cc1N1CCCCC1)c1ccc(-c2cn[nH]c2)o1` [I-43, N-(6-morpholino-4-(piperidin-1-yl)pyridin-3-yl)-5-(1H-pyrazol-4-yl)furan-2-carboxamide], the EC50 in experiment [1] is 3450 nM; in experiment [2] it was 2690 nM.

As to `O=C(Nc1cnc(N2CCOCC2)cc1N1CCCCC1)c1csc(-c2cn[nH]c2)n1` [I-44, N-(6-morpholino-4-(piperidin-1-yl)pyridin-3-yl)-2-(1H-pyrazol-4-yl)thiazole-4-carboxamide], the EC50 in experiment [1] was 229 nM; in experiment [2] it was 222 nM.

As for `O=C(Nc1ccc(C(=O)N2CCOCC2)cc1N1CCCCC1)c1cccc(-c2cn[nH]c2)n1` [I-45, N-(4-(morpholine-4-carbonyl)-2-(piperidin-1-yl)phenyl)-6-(1H-pyrazol-4-yl)picolinamide], the EC50 in experiment [1] stood at 84 nM; in experiment [2] it was 117 nM.

For `O=C(Nc1ccc(C(=O)N2CCOCC2)cc1N1CCCCC1)c1ccc(-c2cn[nH]c2)o1` [I-46, N-(4-(morpholine-4-carbonyl)-2-(piperidin-1-yl)phenyl)-5-(1H-pyrazol-4-yl)furan-2-carboxamide], the values for the EC50 in experiment [1] and in experiment [2] were 2660 nM and 1360 nM, respectively.

On to `O=C(Nc1ccc(C(=O)N2CCOCC2)cc1N1CCCCC1)c1csc(-c2cn[nH]c2)n1` [I-47, N-(4-(morpholine-4-carbonyl)-2-(piperidin-1-yl)phenyl)-2-(1H-pyrazol-4-yl)thiazole-4-carboxamide], for which the EC50 in experiment [1] amounted to 2460 nM; in experiment [2], 164 nM.

As to `O=C(Nc1ccc(CN2CCOCC2)cc1N1CCCCC1)c1cccc(-c2cn[nH]c2)n1` [I-48, N-(4-(morpholinomethyl)-2-(piperidin-1-yl)phenyl)-6-(1H-pyrazol-4-yl)picolinamide], the 50% effective concentration (EC50) was 468 nM in experiment [1] and 177 nM in experiment [2].

In the case of `O=C(Nc1ccc(CN2CCOCC2)cc1N1CCCCC1)c1ccc(-c2cn[nH]c2)o1` [I-49, N-(4-(morpholinomethyl)-2-(piperidin-1-yl)phenyl)-5-(1H-pyrazol-4-yl)furan-2-carboxamide], the EC50 is 2960 nM in experiment [1] and 1270 nM in experiment [2].
